In brackets after ≈: the same amount, converted by molar mass.

Data set [1] has as its system Apis mellifera. Conditions: acute; duration: 48 hours; dermal; mortality.
The test system of data set [2] is Canidae. Conditions: subchronic; duration: 90 days; oral; Dog Other; organ weight.
Data set [3] has as its system Coturnix coturnix. Conditions: mortality; for LD50: acute, oral.
Data set [4] has as its system Daphnia magna. To be noted: chronic/long-term, reproduction.
In data set [5] the test system is Oncorhynchus mykiss.
The subject of data set [6] is Rattus norvegicus.
Data set [7] relates to Tagia sp. Conditions: acute; duration: 14 days; mortality.
The subject of data set [8] is Aphidius rhopalosiphi. Nature of the data set: LR50; higher = less toxic. To be noted: not reported; mortality.

On to `COCCN(C(=O)CCl)c1c(C)cccc1C` [Dimethachlor], for which the LD50 in data set [1] is above 200 µg/piece; in data set [3] (diet), above 1470 mg/kg-day; in data set [3], 524 mg/kg-day; in data set [6] (acute, oral, mortality), 1600 mg/kg-day. Also, the NOAEL (commonly the highest dose or exposure tested at which no adverse effect was seen) in data set [2] was determined as 10 mg/kg-day; in data set [6] (chronic, duration: 2 years, body weight), 11.1 mg/kg-day; in data set [6] (developmental, development), 50 mg/kg-day. The NOEL in data set [3] (reproduction developmental, duration: 140 days) came to 102 mg/kg-day; in data set [6] (chronic, mortality) it was 20 mg/kg-day. The NOEC is 0.476 mg/L in data set [4] (duration: 21 days); 2.3 mg/L in data set [4] (duration: 22 days); 0.85 mg/L in data set [5] (chronic/long-term, duration: 21 days, growth). In addition, the LC50 in data set [5] (acute, duration: 96 hours, mortality) is 3.9 mg/L (≈ 15.2 µM); in data set [7], above 70 mg/kg. The LR50 in data set [8] is 91 g/ha.

The values are drawn from EPA's ToxValDB 9.5 (doi:10.2903/j.efsa.2008.169r).
